Calls of active or inactive are those of the source.
Tests used:
[1] = target: FAD-linked sulfhydryl oxidase ALR (Homo sapiens, UniProt P55789); experiment: ALR-catalysed DTT oxidation blockers – biochemical, H2O2 detection, luminescence, cherry-pick, dose response (AID 493248)
[2] = target: T1, Rac GTPase-activating protein 1 (Homo sapiens, UniProt Q9H0H5); experiment: blockers of MgcRacGAP-driven Rac1 GTP hydrolysis – biochemical, ADP Hunter fluorescence, primary and confirmatory, confirmation (AID 624330); format: functional
T1 sequence (Q9H0H5 whole entry): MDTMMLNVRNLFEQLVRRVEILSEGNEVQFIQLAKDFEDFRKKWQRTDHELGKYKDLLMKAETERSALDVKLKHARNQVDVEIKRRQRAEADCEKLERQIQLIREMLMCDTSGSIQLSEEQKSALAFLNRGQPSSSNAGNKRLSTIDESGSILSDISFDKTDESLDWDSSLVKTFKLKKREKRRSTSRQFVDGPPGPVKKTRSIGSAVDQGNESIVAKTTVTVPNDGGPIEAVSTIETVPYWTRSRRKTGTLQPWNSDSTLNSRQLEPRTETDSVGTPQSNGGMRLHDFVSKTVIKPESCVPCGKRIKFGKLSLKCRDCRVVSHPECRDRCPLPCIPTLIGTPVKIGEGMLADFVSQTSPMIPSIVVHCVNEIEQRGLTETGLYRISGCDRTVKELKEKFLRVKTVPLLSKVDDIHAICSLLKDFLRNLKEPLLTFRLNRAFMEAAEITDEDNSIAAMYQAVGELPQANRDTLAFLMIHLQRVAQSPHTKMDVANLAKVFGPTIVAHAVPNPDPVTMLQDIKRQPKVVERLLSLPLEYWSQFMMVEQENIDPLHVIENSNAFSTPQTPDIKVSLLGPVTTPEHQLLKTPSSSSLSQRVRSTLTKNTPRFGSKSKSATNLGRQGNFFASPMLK

[3] = target: T2, Zinc finger protein mex-5 (Caenorhabditis elegans, UniProt Q9XUB2); experiment: potency of MEX-5 RNA-binding blockers – biochemical, C. elegans, fluorescence polarization, dose response (AID 1960)
T2 sequence (Q9XUB2 whole entry): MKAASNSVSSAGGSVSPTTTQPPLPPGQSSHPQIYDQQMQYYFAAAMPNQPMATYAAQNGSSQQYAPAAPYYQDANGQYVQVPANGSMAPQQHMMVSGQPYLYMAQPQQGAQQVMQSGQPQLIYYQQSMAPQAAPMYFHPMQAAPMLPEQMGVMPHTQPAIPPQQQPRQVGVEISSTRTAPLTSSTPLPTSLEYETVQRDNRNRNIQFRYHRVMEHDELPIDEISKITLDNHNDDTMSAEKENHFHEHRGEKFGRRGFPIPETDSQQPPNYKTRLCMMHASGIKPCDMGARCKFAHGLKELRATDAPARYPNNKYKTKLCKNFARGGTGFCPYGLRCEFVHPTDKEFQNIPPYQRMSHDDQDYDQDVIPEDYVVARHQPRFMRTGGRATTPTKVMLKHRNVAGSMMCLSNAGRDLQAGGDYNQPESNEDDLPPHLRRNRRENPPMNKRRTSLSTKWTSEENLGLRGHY

[4] = target: T3, RNA-binding protein pos-1 (Caenorhabditis elegans, UniProt G5EF15); experiment: disruptors of C. elegans POS-1 RNA interaction – biochemical, fluorescence polarization, dose response (AID 1964);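 also: purified POS-1 fused to maltose binding protein made in E. coli; potency of compounds blocking POS-1 binding to fluorescent RNA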
T3 sequence (G5EF15 whole entry): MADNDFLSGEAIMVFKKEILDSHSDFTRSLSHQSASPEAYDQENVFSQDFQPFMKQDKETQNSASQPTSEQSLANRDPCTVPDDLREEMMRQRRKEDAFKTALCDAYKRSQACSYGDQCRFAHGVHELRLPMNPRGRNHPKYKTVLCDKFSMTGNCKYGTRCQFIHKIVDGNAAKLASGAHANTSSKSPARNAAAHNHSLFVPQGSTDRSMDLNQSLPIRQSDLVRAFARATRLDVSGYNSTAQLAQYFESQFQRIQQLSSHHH

[5] = viability of uninfected HEp-2 cells – cell-based, HTS, cytotoxicity control for RSV inhibitor project, dose response (AID 2410); format: functional; details: human respiratory syncytial virus
Cytochrome P450 2C19 = Cytochrome P450 2C19 (Homo sapiens, UniProt P33261); experiment: Cytochrome panel assay with activity outcomes. Panel member name: p450-cyp2c19 Compounds with AC50 equal or less than 10 uM are considered active; format: functional
Sequence of Cytochrome P450 2C19 (P33261 whole entry): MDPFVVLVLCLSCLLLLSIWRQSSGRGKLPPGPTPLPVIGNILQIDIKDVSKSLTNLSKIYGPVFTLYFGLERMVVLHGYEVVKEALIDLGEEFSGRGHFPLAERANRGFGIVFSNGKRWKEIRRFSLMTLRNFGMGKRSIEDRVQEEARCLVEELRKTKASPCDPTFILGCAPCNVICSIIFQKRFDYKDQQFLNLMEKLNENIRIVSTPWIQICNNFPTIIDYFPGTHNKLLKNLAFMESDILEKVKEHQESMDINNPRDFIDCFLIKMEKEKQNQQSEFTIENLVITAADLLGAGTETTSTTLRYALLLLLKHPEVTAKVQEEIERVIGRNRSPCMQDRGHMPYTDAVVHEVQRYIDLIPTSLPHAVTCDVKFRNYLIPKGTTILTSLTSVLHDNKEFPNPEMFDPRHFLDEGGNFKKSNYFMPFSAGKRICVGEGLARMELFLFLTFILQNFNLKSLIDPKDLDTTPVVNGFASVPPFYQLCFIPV

[6] = Trypanosoma cruzi growth suppression in host cells – NIH3T3 host cells, beta-gal luminescence, confirmation (AID 2044); format: functional, cell-based;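 also: intracellular parasites grown in NIH/3T3 mouse fibroblasts as host cells; luminescent beta-galactosidase reporter signal from transgenic T. cruzi replicating inside host cells; inhibitors lower the luminescence signal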
[7] = NIH3T3 cell viability loss – ATP luminescence, mouse fibroblasts, counter-screen, dose response (AID 2010); format: functional, cell-based;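 also: cells exposed to compound for about 90 hours before reading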
Cytochrome P450 1A2 = target: T4, Cytochrome P450 1A2 (Homo sapiens, UniProt P05177);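 also: PubChem cytochrome P450 panel assay, CYP1A2 panel member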
T4 sequence (P05177 whole entry): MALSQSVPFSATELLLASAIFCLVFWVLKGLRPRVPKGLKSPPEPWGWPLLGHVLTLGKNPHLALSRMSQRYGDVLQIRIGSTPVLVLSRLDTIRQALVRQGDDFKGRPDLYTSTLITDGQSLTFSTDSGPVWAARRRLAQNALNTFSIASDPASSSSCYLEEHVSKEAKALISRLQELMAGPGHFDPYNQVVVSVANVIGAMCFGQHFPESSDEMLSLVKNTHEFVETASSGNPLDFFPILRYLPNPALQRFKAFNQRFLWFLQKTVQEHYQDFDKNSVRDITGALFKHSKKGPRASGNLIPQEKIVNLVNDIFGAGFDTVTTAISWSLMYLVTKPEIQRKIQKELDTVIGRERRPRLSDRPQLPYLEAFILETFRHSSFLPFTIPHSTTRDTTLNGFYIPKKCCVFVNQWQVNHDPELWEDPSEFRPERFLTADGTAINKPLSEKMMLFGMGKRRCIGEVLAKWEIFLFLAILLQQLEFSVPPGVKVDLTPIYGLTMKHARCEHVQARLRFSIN

Cytochrome P450 2D6 = Cytochrome P450 2D6 (Homo sapiens, UniProt P10635);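 also: CYP2D6 member of a cytochrome P450 panel assay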
Sequence of Cytochrome P450 2D6 (P10635 whole entry): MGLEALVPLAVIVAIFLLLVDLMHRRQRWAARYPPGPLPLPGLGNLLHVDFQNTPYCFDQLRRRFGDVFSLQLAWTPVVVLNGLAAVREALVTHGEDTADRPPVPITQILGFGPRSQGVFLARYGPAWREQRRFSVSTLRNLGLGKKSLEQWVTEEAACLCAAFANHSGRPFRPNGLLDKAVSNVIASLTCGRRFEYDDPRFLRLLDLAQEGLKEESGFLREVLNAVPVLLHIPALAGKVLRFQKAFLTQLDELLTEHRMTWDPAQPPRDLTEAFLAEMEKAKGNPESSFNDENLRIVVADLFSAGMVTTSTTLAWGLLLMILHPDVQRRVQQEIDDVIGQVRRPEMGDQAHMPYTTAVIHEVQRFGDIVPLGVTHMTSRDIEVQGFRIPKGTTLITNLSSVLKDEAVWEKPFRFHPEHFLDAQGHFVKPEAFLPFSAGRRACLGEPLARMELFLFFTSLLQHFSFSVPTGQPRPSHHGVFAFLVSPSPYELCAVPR

Streptococcus = experiment: GAS UMAA2166 growth inhibition – luminescence, BacTiterGlo, counter-screen for streptokinase expression inhibitor project, dose response (AID 1915); format: functional, organism-based;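 also: potency for reduction of bacterial viability or growth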
[8] = tested on: Streptococcus sp. 'group A'; experiment: Streptococcus pyogenes SK(-)GAS viability under kanamycin – luminescence, BacTiterGlo, confirmation, counter-screen for streptokinase expression inhibitor project, dose response (AID 1900); format: functional, organism-based

Sequence of FAD-linked sulfhydryl oxidase ALR (P55789 whole entry): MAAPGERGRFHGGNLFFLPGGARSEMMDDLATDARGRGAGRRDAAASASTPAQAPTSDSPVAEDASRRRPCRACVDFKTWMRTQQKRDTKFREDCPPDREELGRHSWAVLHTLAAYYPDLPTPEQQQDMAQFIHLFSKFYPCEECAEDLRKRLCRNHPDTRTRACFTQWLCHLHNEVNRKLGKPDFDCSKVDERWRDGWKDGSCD

Compound: O=C(O)c1ccc(-n2c(/C=C/c3ccccc3)nc3ccccc3c2=O)cc1
- AC50 [1]: 5.95 µM (active)

Compound: c1csc(CNc2ccc3c(c2)OCCO3)c1
- IC50 [2]: 46.4 µM (active)

Compound: COc1cc(CN2CCC(C(=O)NC3CCCC3)CC2)cc(Br)c1O
- IC50 [2]: 127 µM (active)

Compound: CN1CCC2(CC1)C(C#N)=C(N)NC(S)=C2C#N
- EC50 [3]: 8.53 µM (active)
- EC50 [4]: 8.05 µM (active)

Compound: COc1cc2[nH]c(C(=O)NN)c(N)c2cc1OC
- EC50 [3]: 18.5 µM (active)
- EC50 [4]: 117 µM (active)

Compound: COc1ccc(/C=C2\SC(=S)N(CCC(=O)NC3CCCC3)C2=O)cc1OC
- EC50 [3]: 153 µM (active)
- EC50 [4]: > 300 µM (not active)

Compound: Clc1ccc(OCC#CCN2CCCCCC2)cc1
- IC50 [2]: 184 µM (active)

Compound: CCCN(Cc1nnc(-c2ccccc2Cl)o1)C(=O)c1oc2ccccc2c1C
- CC50 [5]: 19.6 µM (active)

Compound: O=C(Nc1cccc(F)c1)N1CC2(CCN(C(=O)c3ccncc3)CC2)C1
- AC50 (Cytochrome P450 2C19): inconclusive

Compound: CN(C)c1ccc(C(C(=O)NC2CCCC2)N(C(=O)c2ccco2)C2CC2)cc1 (stereo not given)
- AC50 [1]: 2.33 µM (active)

Compound: Cc1ccc2nc3c(cc(C(=O)NCC4CCCO4)c(=N)n3C3CCCC3)c(=O)n2c1 (stereo not given)
- EC50 [3]: > 300 µM (not active)
- EC50 [4]: > 300 µM (not active)

Compound: CC(C)Cc1nnc(NC(=O)CCC(=O)N2CC(C)CC(C)C2)s1 (stereo not given)
- EC50 [3]: > 300 µM (not active)
- EC50 [4]: > 300 µM (not active)

Compound: Cc1ccc(CCC(=O)Nc2ccc(N(C)C)cc2)o1
- IC50 [2]: 45.1 µM (active)

Compound: CCCCCCCNC(=O)C1(CC2CC(c3ccc(Cl)cc3)=NO2)CCN(C(=O)C2(C)CC2)CC1 (stereo not given)
- CC50 [5]: 13.5 µM (active)

Compound: CC(C)CC(=O)C[C@H](O)C(Cl)(Cl)Cl
- AC50 (Cytochrome P450 2C19; read-out: AC50): 7.94 µM (inconclusive)

Compound: Cc1ccc2cccc(S(=O)(=O)N3CCN(c4cccc(Cl)c4)CC3)c2n1
- CC50 [5]: 46.9 µM (active)

Compound: Cc1ccc(C)c(N(C)C(=O)c2coc(=O)c3ccccc23)c1
- EC50 [3]: > 300 µM (not active)
- EC50 [4]: > 300 µM (not active)

Compound: C#CCCCO/N=C1/C[C@@H](O)[C@@H](O)[C@@H]2[C@@H]3C(=O)N(Cc4ccccc4)C(=O)[C@H]3CC[C@H]12
- AC50 (Cytochrome P450 2C19; read-out: AC50): 5.01 µM (inconclusive)

Compound: Cc1ccccc1C(=O)Nc1cc(-c2cc(C(C)(C)C)oc2C)nn1C
- CC50 [5]: 19.7 µM (active)

Compound: CC1(OC(=O)c2ccco2)C(=O)C=C2C=C(c3ccc(C#N)cc3)OC=C2C1=O (stereo not given)
- EC50 [3]: 28.9 µM (active)
- EC50 [4]: 52.2 µM (active)

Compound: Cn1c(S)nnc1CSCc1ccc(Cl)cc1
- AC50 [1]: 8.71 µM (active)

Compound: Nc1ccccc1Nc1cc(-c2ccccc2)nn1-c1cccc(Cl)c1
- CC50 [5]: 26.3 µM (active)
- EC50 [6]: 5.32 µM (active)
- EC50 [7]: > 60 µM (not active)

Compound: COc1ccc(-c2[nH]c(-c3ccc(C(=O)O)cc3)nc2-c2ccccc2)cc1
- AC50 (Cytochrome P450 1A2): 28.2 µM (inconclusive)
- AC50 (Cytochrome P450 2C19; read-out: AC50): 39.8 µM (inconclusive)
- AC50 [1]: 3.94 µM (active)

Compound: O=C(O)CSc1ncnc2sc3c(c12)CCC3
- AC50 (Cytochrome P450 1A2): 28.2 µM (inconclusive)
- AC50 (Cytochrome P450 2C19; read-out: AC50): 39.8 µM (inconclusive)

Compound: NC(=O)C1CCN(C(=O)N2c3ccccc3Sc3ccccc32)CC1
- AC50 [1]: 10.8 µM (active)

Compound: COc1ccc(N2CCN(c3ncccn3)CC2)cc1
- IC50 [2]: 82.9 µM (active)

Compound: COc1ccc(-n2c(N)c(C(=O)Nc3c(C)n(C)n(-c4ccccc4)c3=O)c3nc4ccccc4nc32)cc1
- CC50 [5]: > 50 µM (active)

Compound: CCN1/C(=C2/SC(=S)NC2=O)Sc2ccccc21
- AC50 [1]: 2.18 µM (active)

Compound: Cc1ccc(S(=O)(=O)c2c(N)n(NC(=O)c3ccccc3C)c3nc4ccccc4nc23)cc1
- CC50 [5]: 22.9 µM (active)

Compound: COc1ccccc1CCC(=O)OCc1csc(CC(=O)Nc2ccccc2C)n1
- EC50 [3]: > 300 µM (inconclusive)
- EC50 [4]: > 300 µM (not active)

Compound: NC(=O)C1CCN(C(=O)CN2C(=O)c3ccccc3S2(=O)=O)CC1
- AC50 (Cytochrome P450 2C19; read-out: AC50): 14.1 µM (inconclusive)

Compound: CC(C)(C)OC(=O)NCCCCCNC(=O)c1[nH]cnc1C(=O)N[C@@H](Cc1ccccc1)C(=O)OCc1ccccc1
- CC50 [5]: 12.5 µM (active)

Compound: COc1ccc(CCNC(=O)c2ccc3c(=O)n(Cc4ccco4)c(=S)[nH]c3c2)cc1OC
- AC50 (Cytochrome P450 2C19; read-out: AC50): 7.94 µM (inconclusive)

Compound: O=C(O)c1cc2ccccc2cc1Nc1ccccc1
- AC50 [1]: 1.49 µM (active)

Compound: N#CC1=C(N)OC2=C(CC/C2=C\c2ccc(F)cc2)C1c1ccc(F)cc1 (stereo not given)
- CC50 [5]: 8.44 µM (active)

Compound: COc1cccc(-c2nc(NCCN3CCOCC3)c3ccccc3n2)c1
- AC50 (Cytochrome P450 2C19; read-out: AC50): 20 µM (inconclusive)

Compound: CCN(CCNC(=O)C1CCCN(S(=O)(=O)c2c[nH]cn2)C1)c1ccccc1 (stereo not given)
- AC50 [1]: 0.394 µM (active)

Compound: COC(=O)c1cccc(-n2c(C)cc(C=O)c2C)c1C
- EC50 [3]: > 300 µM (not active)
- EC50 [4]: > 300 µM (not active)

Compound: Clc1ccccc1C(Nc1ncccn1)Nc1ncccn1
- AC50 (Cytochrome P450 2C19): inconclusive

Compound: CCc1c(C(=O)NCc2ccccc2Cl)[nH]c(C)c1C(C)=O
- CC50 [5]: > 50 µM (active)

Compound: CCO[C@H]1OC(C(=O)Nc2ccccc2)=C[C@@H](c2ccc(C(F)(F)F)cc2)[C@@H]1CCCO
- CC50 [5]: 17.5 µM (active)

Compound: Cc1c(C(=O)NCCSCc2c(F)cccc2Cl)cnn1-c1ccc(Cl)cc1
- CC50 [5]: 16.8 µM (active)

Compound: CCN(CC)c1ccc(NC(=O)CN(C)Cc2cccs2)cc1
- IC50 [2]: 90.9 µM (active)

Compound: CN1CC(=O)N(CC(=O)Nc2ccc(SC(F)F)cc2)C1=O
- AC50 [1]: 0.477 µM (active)

Compound: COc1cc(C(=O)NCCC(=O)NCc2ccc3c(c2)OCO3)cc(OC)c1OC
- AC50 (Cytochrome P450 2C19; read-out: AC50): 28.2 µM (inconclusive)
- AC50 (Cytochrome P450 2D6): 25.1 µM (inconclusive)

Compound: CCOc1cc(/C=N/NC(=O)CCCC(=O)NC2CCCCC2)ccc1O
- IC50 [2]: 69.6 µM (active)

Compound: CCOc1cc(/C=N\NC(=O)c2c(C)nc3ccccn23)ccc1O
- IC50 [2]: 76 µM (active)

Compound: Cc1cc(C)nc(N/N=C/c2c[nH]c3ccccc23)n1
- IC50 [2]: 63.2 µM (active)

Compound: O=[N+]([O-])c1ccc(/C=N/Nc2nc(N3CCCCCC3)nc(N3CCCCCC3)n2)o1
- CC50 [5]: 11.6 µM (active)
- EC50 (Streptococcus): 2.35 µM (active)
- EC50 [6]: 0.197 µM (active)
- EC50 [7]: > 60 µM (not active)
- EC50 [8]: 0.504 µM (active)

Compound: O=C(O)CC/C(=N\Nc1ccccc1[N+](=O)[O-])c1cccs1
- AC50 [1]: 2.73 µM (active)

Compound: CN1CCCC(CN2c3ccccc3Sc3ccccc32)C1 (stereo not given) [MEPAZINE ACETATE]
- AC50 [1]: 0.098 µM (active)

From ChEMBL document CHEMBL1201862, “PubChem BioAssay data set” (2004)
